For one assay, the target named is T1, human GIP R (Homo sapiens, UniProt P48546).
T1 construct: expressed in transfected cells
T1 sequence (P48546 22-466): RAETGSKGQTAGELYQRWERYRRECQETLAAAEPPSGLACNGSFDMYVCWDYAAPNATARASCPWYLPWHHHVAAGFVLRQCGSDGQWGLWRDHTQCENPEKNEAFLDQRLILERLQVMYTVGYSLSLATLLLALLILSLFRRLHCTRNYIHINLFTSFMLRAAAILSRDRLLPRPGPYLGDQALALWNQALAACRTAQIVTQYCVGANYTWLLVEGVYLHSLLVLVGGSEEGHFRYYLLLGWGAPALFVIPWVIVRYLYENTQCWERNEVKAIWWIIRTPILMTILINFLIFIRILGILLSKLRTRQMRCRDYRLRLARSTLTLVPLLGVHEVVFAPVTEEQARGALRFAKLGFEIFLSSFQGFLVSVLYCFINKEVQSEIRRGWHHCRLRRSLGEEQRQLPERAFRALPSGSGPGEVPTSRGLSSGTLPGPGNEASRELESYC
Description: Human GIP receptor (GIP R) activity assay, cAMP induction (AlphaScreen) in HEK293 cells. It counts as cell-based. The gist of the method: (§1)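 Stable HEK293 clones expressing human GIP R or GLP-1 R, seeded 1 day before; cells washed in Tyrode's buffer (10 mM HEPES, pH 7.4), stimulated, then lysed. cAMP measured by AlphaScreen bead competition (1 h, room temperature, dark). EC50 = concentration giving half-maximal cAMP elevation, from curves of absolute cAMP (nM) vs log concentration.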

The target of a further assay is T2, human GLP-1 R (Homo sapiens, UniProt P43220).
T2 construct: expressed in transfected cells
T2 sequence (P43220 24-463): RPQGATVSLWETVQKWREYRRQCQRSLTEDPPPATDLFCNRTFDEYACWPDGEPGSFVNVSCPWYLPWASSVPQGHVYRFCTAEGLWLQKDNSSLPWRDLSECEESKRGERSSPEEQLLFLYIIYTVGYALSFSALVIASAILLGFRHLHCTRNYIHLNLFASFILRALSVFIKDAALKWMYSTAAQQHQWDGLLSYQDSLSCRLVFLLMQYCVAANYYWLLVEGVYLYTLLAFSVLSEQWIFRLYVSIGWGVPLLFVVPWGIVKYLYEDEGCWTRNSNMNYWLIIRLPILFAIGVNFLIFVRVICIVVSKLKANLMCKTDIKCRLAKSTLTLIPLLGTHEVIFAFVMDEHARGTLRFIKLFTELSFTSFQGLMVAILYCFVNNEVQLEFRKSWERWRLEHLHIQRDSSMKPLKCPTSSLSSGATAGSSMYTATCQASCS
As to the kind of experiment: Human GLP-1 receptor (GLP-1 R) activity assay, cAMP induction (AlphaScreen) in HEK293 cells. It counts as cell-based. The method in brief: as §1

Setting [1] is: Table 2a, secondary assay study, read-out: hGIP-R cAMP EC50 average value.
Where [2] appears, read: Table 2a, secondary assay study, read-out: hGLP1-R cAMP EC50 average value.
Where [3] appears, read: Table 2, HEK293 cells expressing human GIP R, read-out: hGIP-R cAMP EC50 average value.
[4] abbreviates: Table 3, most comprehensive data, read-out: hGIP-R cAMP EC50 average value.
Setting [5] is: Table 2, HEK293 cells expressing human GLP-1 R, read-out: hGLP1-R cAMP EC50 average value.

Like-named read-outs stand apart in the source and are kept apart here. *1 amine or outer side, *2 acyl side, *3 side chain or, on linkers, in order; H or OH if unused. Where a SMILES comes first, the peptide text is derived from it. Side-chain parts run from the residue outwards. [ ]: non-standard residue; d: D form. The star is where a group is joined. C18 diacid = O=C(O)CCCCCCCCCCCCCCCCC(=O)*; γGlu = O=C(O)[C@H](CCC(=O)[*:2])N[*:1]; AEEA = NCCOCCOCC(=O)O; Aib = CC(C)(N)C(=O)O

On to `CC[C@H](C)[C@H](NC(=O)[C@H](CO)NC(=O)[C@H](Cc1ccc(O)cc1)NC(=O)[C@H](CC(=O)O)NC(=O)[C@H](CO)NC(=O)[C@@H](NC(=O)[C@H](Cc1ccccc1)NC(=O)[C@@H](NC(=O)CNC(=O)[C@H](CCC(=O)O)NC(=O)C(C)(C)NC(=O)[C@@H](N)Cc1ccc(O)cc1)[C@@H](C)O)[C@@H](C)O)C(=O)N[C@@H](Cc1ccc(O)cc1)C(=O)N[C@@H](CC(C)C)C(=O)N[C@@H](CCC(=O)O)C(=O)N[C@@H](CCCCN)C(=O)N[C@@H](CCCCNC(=O)COCCOCCNC(=O)COCCOCCNC(=O)CC[C@H](NC(=O)CCCCCCCCCCCCCCCCC(=O)O)C(=O)O)C(=O)N[C@@H](C)C(=O)N[C@@H](CCC(N)=O)C(=O)N[C@@H](CCCNC(=N)N)C(=O)N[C@@H](C)C(=O)N[C@@H](Cc1ccccc1)C(=O)N[C@H](C(=O)N[C@@H](CCC(=O)O)C(=O)N[C@@H](Cc1c[nH]c2ccccc12)C(=O)N[C@@H](CC(C)C)C(=O)N[C@@H](CC(C)C)C(=O)N[C@@H](CCCNC(=N)N)C(=O)N[C@@H](C)C(N)=O)C(C)C` [Compound 19] (H-Y[Aib]EGTFTSDYSIYLEKK([AEEA-AEEA-γGlu-C18 diacid])AQRAFVEWLLRA-NH2), for which the EC50 came out at 0.014 nM on human GIP R (setting [1]) and 0.022 nM on human GLP-1 R (setting [2]).

In the case of `CC[C@H](C)[C@H](NC(=O)[C@H](CO)NC(=O)[C@H](CC(C)C)NC(=O)[C@H](CC(=O)O)NC(=O)[C@H](CO)NC(=O)[C@@H](NC(=O)[C@H](Cc1ccccc1)NC(=O)[C@@H](NC(=O)CNC(=O)[C@H](CCC(=O)O)NC(=O)C(C)(C)NC(=O)[C@@H](N)Cc1ccc(O)cc1)[C@@H](C)O)[C@@H](C)O)C(=O)N[C@@H](C)C(=O)N[C@@H](CC(C)C)C(=O)N[C@@H](CC(=O)O)C(=O)N[C@@H](CCCCN)C(=O)N[C@@H](CCCCNC(=O)COCCOCCNC(=O)COCCOCCNC(=O)CC[C@H](NC(=O)CCCCCCCCCCCCCCCCC(=O)O)C(=O)O)C(=O)N[C@@H](C)C(=O)N[C@@H](CCC(N)=O)C(=O)N[C@@H](CCCNC(=N)N)C(=O)N[C@@H](C)C(=O)N[C@@H](Cc1ccccc1)C(=O)N[C@H](C(=O)N[C@@H](CC(N)=O)C(=O)N[C@@H](Cc1c[nH]c2ccccc12)C(=O)N[C@@H](CC(C)C)C(=O)N[C@H](C(=O)N[C@@H](C)C(=O)NC(C)(C)C(=O)N[C@@H](CCCCN)C(N)=O)C(C)C)C(C)C` [Compound 20], the concentration giving a half-maximal response (EC50) on human GIP R (hGIP-R cAMP EC50 average value, Table 2, HEK293 cells expressing human GIP R) was found to be 0.0097 nM; at human GLP-1 R it was 0.011 nM.

In the case of `CC[C@H](C)[C@H](NC(=O)[C@H](CO)NC(=O)[C@H](CC(C)C)NC(=O)[C@H](CC(=O)O)NC(=O)[C@H](CO)NC(=O)[C@@H](NC(=O)[C@H](Cc1ccccc1)NC(=O)[C@@H](NC(=O)CNC(=O)[C@H](CCC(=O)O)NC(=O)C(C)(C)NC(=O)[C@@H](N)Cc1ccc(O)cc1)[C@@H](C)O)[C@@H](C)O)C(=O)N[C@@H](C)C(=O)N[C@@H](CC(C)C)C(=O)N[C@@H](CC(=O)O)C(=O)N[C@@H](CCCCN)C(=O)N[C@@H](CCCCNC(=O)COCCOCCNC(=O)COCCOCCNC(=O)CC[C@H](NC(=O)CCCCCCCCCCCCCCCCC(=O)O)C(=O)O)C(=O)N[C@@H](C)C(=O)N[C@@H](CCC(N)=O)C(=O)N[C@@H](CCCNC(=N)N)C(=O)N[C@@H](C)C(=O)N[C@@H](Cc1ccccc1)C(=O)N[C@H](C(=O)N[C@@H](CC(N)=O)C(=O)N[C@@H](Cc1c[nH]c2ccccc12)C(=O)N[C@@H](CC(C)C)C(=O)N[C@H](C(=O)N[C@@H](C)C(=O)NC(C)(C)C(=O)N[C@@H](CCCCN)C(N)=O)C(C)C)C(C)C` [Compound 21], the EC50 at human GIP R (setting [1]) and on human GLP-1 R (setting [2]) was 0.01 nM in each case.

Take `CC[C@H](C)[C@H](NC(=O)[C@H](CO)NC(=O)[C@H](Cc1ccc(O)cc1)NC(=O)[C@H](CC(=O)O)NC(=O)[C@H](CO)NC(=O)[C@@H](NC(=O)[C@H](Cc1ccccc1)NC(=O)[C@@H](NC(=O)CNC(=O)[C@H](CCC(=O)O)NC(=O)C(C)(C)NC(=O)[C@@H](N)Cc1ccc(O)cc1)[C@@H](C)O)[C@@H](C)O)C(=O)N[C@@H](C)C(=O)N[C@@H](CC(C)C)C(=O)N[C@@H](CC(=O)O)C(=O)N[C@@H](CCCCN)C(=O)N[C@@H](CCCCNC(=O)COCCOCCNC(=O)COCCOCCNC(=O)CC[C@H](NC(=O)CCCCCCCCCCCCCCCCC(=O)O)C(=O)O)C(=O)N[C@@H](C)C(=O)N[C@@H](CCC(N)=O)C(=O)N[C@@H](CCCNC(=N)N)C(=O)N[C@@H](C)C(=O)N[C@@H](Cc1ccccc1)C(=O)N[C@H](C(=O)N[C@@H](CCC(=O)O)C(=O)N[C@@H](Cc1c[nH]c2ccccc12)C(=O)N[C@@H](CC(C)C)C(=O)N[C@H](C(=O)N[C@@H](C)C(=O)NC(C)(C)C(=O)N[C@@H](CCCCN)C(N)=O)C(C)C)C(C)C` [Compound 21] (H-Y[Aib]EGTFTSDYSIALDKK([AEEA-AEEA-γGlu-C18 diacid])AQRAFVEWLVA[Aib]K-NH2): the EC50 at human GIP R (setting [3]) turned out to be 0.0068 nM; on human GIP R (setting [4]), 0.007 nM; at human GLP-1 R (setting [5]), 0.011 nM.

Regarding `CC[C@H](C)[C@H](NC(=O)[C@H](CO)NC(=O)[C@H](Cc1ccc(O)cc1)NC(=O)[C@H](CC(=O)O)NC(=O)[C@H](CO)NC(=O)[C@@H](NC(=O)[C@H](Cc1ccccc1)NC(=O)[C@@H](NC(=O)CNC(=O)[C@H](CCC(=O)O)NC(=O)C(C)(C)NC(=O)[C@@H](N)Cc1ccc(O)cc1)[C@@H](C)O)[C@@H](C)O)C(=O)N[C@@H](C)C(=O)N[C@@H](CC(C)C)C(=O)N[C@@H](CCC(=O)O)C(=O)N[C@@H](CCCCN)C(=O)N[C@@H](CCCCNC(=O)COCCOCCNC(=O)COCCOCCNC(=O)CC[C@H](NC(=O)CCCCCCCCCCCCCCCCC(=O)O)C(=O)O)C(=O)N[C@@H](C)C(=O)N[C@@H](CCC(N)=O)C(=O)N[C@@H](CCCNC(=N)N)C(=O)N[C@@H](C)C(=O)N[C@@H](Cc1ccccc1)C(=O)N[C@H](C(=O)N[C@@H](CCC(=O)O)C(=O)N[C@@H](Cc1c[nH]c2ccccc12)C(=O)N[C@@H](CC(C)C)C(=O)N[C@@H](CCC(=O)O)C(=O)N[C@@H](C)C(=O)N[C@@H](CCC(N)=O)C(=O)NCC(=O)N1CCC[C@H]1C(=O)N[C@@H](CO)C(=O)N[C@@H](CO)C(=O)NCC(=O)N[C@@H](C)C(=O)N1CCC[C@H]1C(=O)N1CCC[C@H]1C(=O)N1CCC[C@H]1C(=O)N[C@@H](CO)C(N)=O)C(C)C` [Compound 22] (H-Y[Aib]EGTFTSDYSIALEKK([AEEA-AEEA-γGlu-C18 diacid])AQRAFVEWLEAQGPSSGAPPPS-NH2), the EC50 came to 0.06 nM on human GIP R (setting [3]); 0.06 nM on human GIP R (setting [4]); 0.061 nM at human GLP-1 R (setting [5]); 0.061 nM on human GLP-1 R (Table 3, most comprehensive data, read-out: hGLP-1-R cAMP EC50 average value).

As to `CC[C@H](C)[C@H](NC(=O)[C@H](CO)NC(=O)[C@H](Cc1ccc(O)cc1)NC(=O)[C@H](CC(=O)O)NC(=O)[C@H](CO)NC(=O)[C@@H](NC(=O)[C@H](Cc1ccccc1)NC(=O)[C@@H](NC(=O)CNC(=O)[C@H](CCC(=O)O)NC(=O)C(C)(C)NC(=O)[C@@H](N)Cc1ccc(O)cc1)[C@@H](C)O)[C@@H](C)O)C(=O)N[C@@H](C)C(=O)N[C@@H](CC(C)C)C(=O)N[C@@H](CCC(=O)O)C(=O)N[C@@H](CCCCN)C(=O)N[C@@H](CCCCNC(=O)COCCOCCNC(=O)COCCOCCNC(=O)CC[C@H](NC(=O)CCCCCCCCCCCCCCCCC(=O)O)C(=O)O)C(=O)N[C@@H](C)C(=O)N[C@@H](CCC(N)=O)C(=O)N[C@@H](CCCNC(=N)N)C(=O)N[C@@H](C)C(=O)N[C@@H](Cc1ccccc1)C(=O)N[C@H](C(=O)N[C@@H](CCC(=O)O)C(=O)N[C@@H](Cc1c[nH]c2ccccc12)C(=O)N[C@@H](CC(C)C)C(=O)N[C@@H](CCC(=O)O)C(=O)N[C@@H](C)C(=O)N[C@@H](CCC(N)=O)C(=O)N[C@@H](CCCCN)C(N)=O)C(C)C` [Compound 23] (H-Y[Aib]EGTFTSDYSIALEKK([AEEA-AEEA-γGlu-C18 diacid])AQRAFVEWLEAQK-NH2), the EC50 at human GIP R (setting [3]) turned out to be 0.2 nM; on human GIP R (setting [4]), 0.2 nM; on human GLP-1 R (setting [5]) it was 0.044 nM.

Turning to `CC[C@H](C)[C@H](NC(=O)[C@H](CO)NC(=O)[C@H](CC(C)C)NC(=O)[C@H](CC(=O)O)NC(=O)[C@H](CO)NC(=O)[C@@H](NC(=O)[C@H](Cc1ccccc1)NC(=O)[C@@H](NC(=O)CNC(=O)[C@H](CCC(=O)O)NC(=O)C(C)(C)NC(=O)[C@@H](N)Cc1ccc(O)cc1)[C@@H](C)O)[C@@H](C)O)C(=O)N[C@@H](C)C(=O)N[C@@H](CC(C)C)C(=O)N[C@@H](CCC(=O)O)C(=O)N[C@@H](CCCCN)C(=O)N[C@@H](CCCCNC(=O)COCCOCCNC(=O)COCCOCCNC(=O)CC[C@H](NC(=O)CCCCCCCCCCCCCCCCC(=O)O)C(=O)O)C(=O)N[C@@H](C)C(=O)N[C@@H](CCC(N)=O)C(=O)N[C@@H](CCCNC(=N)N)C(=O)N[C@@H](C)C(=O)N[C@@H](Cc1ccccc1)C(=O)N[C@H](C(=O)N[C@@H](CCC(=O)O)C(=O)N[C@@H](Cc1c[nH]c2ccccc12)C(=O)N[C@@H](CC(C)C)C(=O)N[C@@H](CCC(=O)O)C(=O)N[C@@H](C)C(=O)N[C@@H](CCC(N)=O)C(=O)N[C@@H](CCCCN)C(N)=O)C(C)C` [Compound 24] (H-Y[Aib]EGTFTSDLSIALEKK([AEEA-AEEA-γGlu-C18 diacid])AQRAFVEWLEAQK-NH2), the results for the half-maximal effective concentration (EC50) on human GIP R (setting [4]) and at human GLP-1 R (setting [5]) were 0.26 nM and 0.011 nM, respectively.

(Values after US10093713B2, “GIP-GLP-1 dual agonist compounds and methods” (priority 2013, dated 2018).)
